This experiment concerns rabbit LDL. In words: Amount of thiobarbituric acid reactive substances (TBARS) formed on Cu2+ oxidation of LDL. Type of experiment: biochemical. To be noted: 5 µM of Cu²⁺ added to rabbit LDL, followed by heating. As to the method: The biological properties of the compounds as shown hereinafter were examined by the following methods. • (1) The amount of thiobarbituric acid reactive substances: 5 µM of Cu²⁺ was added to rabbit LDL, prepared by the method reported by Havel et al., followed by heating. Then the antioxidative effect of each compound was examined by using the thiobarbituric acid reactive substances (TBARS) thus formed as the guidance. […] 0.5 ml of an n-butanol solution containing 0.2 µM of MCLA and 10 mM of linoleic acid was introduced into a vial for luminescence analysis and the luminescence due to autoxidation was measured in a thermostat at 37°C. […] To the obtained plasma, were added EDTA-NaN₃ (a 5% solution of pH 7.4) and a benzamidine solution (60 mg/ml) respectively in amounts of 0.8 ml and 0.5 ml per 100 ml of the plasma. Then rabbit or human LDL (1.019 < d < 1.063) was prepared by ultracentrifugation in accordance with the method of Havel et al.*. After performing the ultracentifugation again, the LDL was washed and concentrated. Then it was dialyzed against a 150 mM NaCl - 2 mM Na₂HPO₄ solution at 4°C and KBr was removed. The protein content was determined by Lowry method** and then the LDL was subjected to the subsequent procedure. (Measurement of electrophoretic mobility in agarose gel) 10 µM of Cu²⁺ and a specimen were added to an LDL-containing solution (3.00 µg protein/ml). After incubating at 37°C for approximately 24 hours, a portion (1 µl) thereof was applied onto an agarose gel film (Universal Film, manufactured by Corning Co.) and then subjected to electrophoresis (Agarose Gel Electrophoresis System for Lipoprotein, manufactured by Corning Co.). Thus the mobility was measured by staining lipids with Fat Red 7B. […] After 3 days, peritoneal macrophages were collected from the mouse and incubated in an RPMI 1640 medium containing 10% of FBS. The macrophages were used in the • examination on the next day.

On to `COc1cc(N(C)Cc2ccccc2)cc(OC)c1OC` [Compound 2, N-benzyl-N-methyl-3,4,5-trimethoxyaniline], for which the “Formed TBARS (%)” value (Compound conc. 10^-5 M, 10 µM) turned out to be 31% and the “Formed TBARS (%)” value (Compound conc. 10^-6 M, 1 µM) turned out to be 56%.
In the same order, the values of `CCN(Cc1ccccc1)c1cc(OC)c(OC)c(OC)c1` [Compound 3, N-benzyl-N-ethyl-3,4,5-trimethoxyaniline] are 35% and 51%.
Regarding `COc1cc(N(CC=C(C)CCC=C(C)C)Cc2ccccc2)cc(OC)c1OC` [Compound 8], the “Formed TBARS (%)” value (Compound conc. 10^-5 M, 10 µM) is reported as 31% and the “Formed TBARS (%)” value (Compound conc. 10^-6 M, 1 µM) was found to be 55%.
The like results for `COc1cc(N(CC=C(C)CCCC(C)CCCC(C)CCCC(C)C)Cc2ccccc2)cc(OC)c1OC` (stereo not shown) [Compound 9] were, in that order, 57% and 78%.
Take `COc1cc(NCc2ccc(C)c(C)c2)cc(OC)c1OC` [Compound 10]: the “Formed TBARS (%)” value amounted to 9% (Compound conc. 10^-5 M, 10 µM) and 25% (Compound conc. 10^-6 M, 1 µM).
In the same order, the values of `COc1cc(NCc2ccc(Br)cc2)cc(OC)c1OC` [Compound 26] are 12% and 27%.
With `COc1cc(NCc2cccc(Br)c2)cc(OC)c1OC` [Compound 27], the “Formed TBARS (%)” value (Compound conc. 10^-5 M, 10 µM) was 12% and the “Formed TBARS (%)” value (Compound conc. 10^-6 M, 1 µM) was found to be 29%.
Consider `COc1cc(NCc2ccccc2Br)cc(OC)c1OC` [Compound 28], for which the “Formed TBARS (%)” value stood at 13% (Compound conc. 10^-5 M, 10 µM) and 30% (Compound conc. 10^-6 M, 1 µM).
`COc1cc(NCc2c(F)c(F)c(F)c(F)c2F)cc(OC)c1OC` [Compound 29]: the “Formed TBARS (%)” value (Compound conc. 10^-5 M, 10 µM) turned out to be 20% and the “Formed TBARS (%)” value (Compound conc. 10^-6 M, 1 µM) is 39%.
The like results for `COc1cc(N(CCCc2ccccc2)Cc2c(F)c(F)c(F)c(F)c2F)cc(OC)c1OC` [Compound 30] were, in that order, 26% and 57%.
The like results for `COc1cc(CNc2cc(OC)c(OC)c(OC)c2)cc(OC)c1OC` [Compound 35] were, in that order, 28% and 52%.
For `CCCCCCOc1ccc(CNc2cc(OC)c(OC)c(OC)c2)cc1` [Compound 41], the “Formed TBARS (%)” value was determined as 16% (Compound conc. 10^-5 M, 10 µM) and 63% (Compound conc. 10^-6 M, 1 µM).
Consider `CCCCCCCCOc1ccc(CNc2cc(OC)c(OC)c(OC)c2)cc1` [Compound 42], for which the “Formed TBARS (%)” value was determined as 19% (Compound conc. 10^-5 M, 10 µM) and 72% (Compound conc. 10^-6 M, 1 µM).
The like results for `CCCCCCCCCCCCOc1ccc(CNc2cc(OC)c(OC)c(OC)c2)cc1OCCCCCCCCCCCC` [Compound 43] were, in that order, 62% and 94%.
Consider `COc1cc(NCc2ccccc2OCCC(C)CCCC(C)C)cc(OC)c1OC` (stereo not shown) [Compound 45], for which the “Formed TBARS (%)” value runs as follows: (Compound conc. 10^-5 M, 10 µM) 15%; (Compound conc. 10^-6 M, 1 µM) 80%.
In the case of `COc1cc(NCc2ccccc2OC/C=C(\C)CCC=C(C)C)cc(OC)c1OC` [Compound 46], the “Formed TBARS (%)” value worked out at 13% (Compound conc. 10^-5 M, 10 µM) and 69% (Compound conc. 10^-6 M, 1 µM).
Turning to `COc1cc(NCc2ccc(OC/C=C(\C)CCC=C(C)C)cc2)cc(OC)c1OC` [Compound 47], the “Formed TBARS (%)” value runs as follows: (Compound conc. 10^-5 M, 10 µM) 17%; (Compound conc. 10^-6 M, 1 µM) 76%.
As for `COc1cc(NCc2ccc(OC/C=C(\C)CCCC(C)CCCC(C)CCCC(C)C)cc2)cc(OC)c1OC` (stereo not shown) [Compound 48], the “Formed TBARS (%)” value is listed as 40% (Compound conc. 10^-5 M, 10 µM) and 90% (Compound conc. 10^-6 M, 1 µM).
The like results for `COc1cc(NCc2ccc(OC/C=C(\C)CC/C=C(\C)CCC=C(C)C)cc2)cc(OC)c1OC` [Compound 49] were, in that order, 39% and 78%.
In the same order, the values of `COc1cc(NCc2ccccc2SCCC(C)CCCC(C)C)cc(OC)c1OC` (stereo not shown) [Compound 50] are 17% and 70%.
In the same order, the values of `COc1cc(NCc2cccc(Oc3ccccc3)c2)cc(OC)c1OC` [Compound 51] are 16% and 32%.
Regarding `COc1cc(NCc2ccc(Oc3ccccc3)cc2)cc(OC)c1OC` [Compound 52], the “Formed TBARS (%)” value was 13% (Compound conc. 10^-5 M, 10 µM) and 43% (Compound conc. 10^-6 M, 1 µM).
For `CCOC(=O)CCCCCCOc1ccc(CNc2cc(OC)c(OC)c(OC)c2)cc1` [Compound 53], the “Formed TBARS (%)” value turned out to be 13% (Compound conc. 10^-5 M, 10 µM) and 38% (Compound conc. 10^-6 M, 1 µM).
With `COc1cc(NCc2ccc(OCCCCCCC(=O)O)cc2)cc(OC)c1OC` [Compound 54], the “Formed TBARS (%)” value (Compound conc. 10^-5 M, 10 µM) came to 16% and the “Formed TBARS (%)” value (Compound conc. 10^-6 M, 1 µM) is listed as 46%.
Regarding `CCOC(=O)C(C)(C)Oc1ccc(CNc2cc(OC)c(OC)c(OC)c2)cc1` [Compound 55], the “Formed TBARS (%)” value (Compound conc. 10^-5 M, 10 µM) is 20% and the “Formed TBARS (%)” value (Compound conc. 10^-6 M, 1 µM) is on record as 46%.
The like results for `COc1cc(NCc2ccc(OC(C)(C)C(=O)O)cc2)cc(OC)c1OC` [Compound 56] were, in that order, 59% and 77%.
In the same order, the values of `COc1cc(NCc2ccc(CNc3cc(OC)c(OC)c(OC)c3)cc2)cc(OC)c1OC` [Compound 57] are 12% and 34%.
In the same order, the values of `COC(=O)c1ccc(CNc2cc(OC)c(OC)c(OC)c2)cc1` [Compound 60] are 17% and 46%.
On to `COc1cc(NCc2ccc([N+](=O)[O-])cc2)cc(OC)c1OC` [Compound 64], for which the “Formed TBARS (%)” value is, setting by setting: (Compound conc. 10^-5 M, 10 µM) 17%; (Compound conc. 10^-6 M, 1 µM) 38%.
In the same order, the values of `COc1cc(NCc2ccc(CO)cc2)cc(OC)c1OC` [Compound 67] are 35% and 55%.
In the same order, the values of `COc1cc(NCCc2ccccc2)cc(OC)c1OC` [Compound 69] are 18% and 36%.
As to `COc1cc(NCCCc2ccccc2)cc(OC)c1OC` [Compound 70], the “Formed TBARS (%)” value is, setting by setting: (Compound conc. 10^-5 M, 10 µM) 18%; (Compound conc. 10^-6 M, 1 µM) 25%.
`COc1cc(NCCCCc2ccccc2)cc(OC)c1OC` [Compound 71]: the “Formed TBARS (%)” value (Compound conc. 10^-5 M, 10 µM) is recorded as 7% and the “Formed TBARS (%)” value (Compound conc. 10^-6 M, 1 µM) worked out at 20%.
In the same order, the values of `COc1cc(NCCCc2ccc(CO)cc2)cc(OC)c1OC` [Compound 75] are 16% and 38%.
The like results for `CCCCC(Nc1cc(OC)c(OC)c(OC)c1)c1ccccc1` (stereo not shown) [Compound 77, N-(1-phenylpentyl)-3,4,5-trimethoxyaniline] were, in that order, 17% and 31%.
On to `CCCCCCC(Nc1cc(OC)c(OC)c(OC)c1)c1ccccc1` (stereo not shown) [Compound 78], for which the “Formed TBARS (%)” value amounted to 14% (Compound conc. 10^-5 M, 10 µM) and 29% (Compound conc. 10^-6 M, 1 µM).
In the same order, the values of `CCCCCCCCC(Nc1cc(OC)c(OC)c(OC)c1)c1ccccc1` (stereo not shown) [Compound 79] are 19% and 46%.
The like results for `C=CCC(Nc1cc(OC)c(OC)c(OC)c1)c1ccccc1` (stereo not shown) [Compound 80] were, in that order, 17% and 33%.
Regarding `COc1cc(NC(CC(C)C)c2ccccc2)cc(OC)c1OC` (stereo not shown) [Compound 81], the “Formed TBARS (%)” value by setting is: (Compound conc. 10^-5 M, 10 µM) 15%; (Compound conc. 10^-6 M, 1 µM) 25%.
The like results for `COc1cc(NC(c2ccccc2)c2ccccc2)cc(OC)c1OC` [Compound 82] were, in that order, 15% and 34%.
`COc1cc(NC(CCc2ccccc2)C(C)C)cc(OC)c1OC` (stereo not shown) [Compound 83]: the “Formed TBARS (%)” value runs as follows: (Compound conc. 10^-5 M, 10 µM) 15%; (Compound conc. 10^-6 M, 1 µM) 28%.
In the same order, the values of `COc1cc(NCC=Cc2ccccc2)cc(OC)c1OC` [Compound 85] are 20% and 64%.
Take `COc1cc(N(CC=Cc2ccccc2)CC=Cc2ccccc2)cc(OC)c1OC` [Compound 86]: the “Formed TBARS (%)” value was determined as 27% (Compound conc. 10^-5 M, 10 µM) and 52% (Compound conc. 10^-6 M, 1 µM).
As to `COc1cc(NC2CCCc3ccccc32)cc(OC)c1OC` (stereo not shown) [Compound 90], the “Formed TBARS (%)” value is listed as 9% (Compound conc. 10^-5 M, 10 µM) and 26% (Compound conc. 10^-6 M, 1 µM).
In the same order, the values of `COc1cc(NCc2ccc[nH]2)cc(OC)c1OC` [Compound 94] are 63% and 87%.
For `COc1cc(NCc2ccco2)cc(OC)c1OC` [Compound 95], the “Formed TBARS (%)” value is listed as 29% (Compound conc. 10^-5 M, 10 µM) and 66% (Compound conc. 10^-6 M, 1 µM).
In the same order, the values of `C=CCN(Cc1ccco1)c1cc(OC)c(OC)c(OC)c1` [Compound 96] are 43% and 67%.
As for `COc1cc(NCc2cccs2)cc(OC)c1OC` [Compound 97], the “Formed TBARS (%)” value runs as follows: (Compound conc. 10^-5 M, 10 µM) 24%; (Compound conc. 10^-6 M, 1 µM) 44%.
The like results for `COc1cc(NCc2ccccn2)cc(OC)c1OC` [Compound 98] were, in that order, 43% and 79%.
Consider `COc1cc(NCc2cccnc2)cc(OC)c1OC` [Compound 99], for which the “Formed TBARS (%)” value is on record as 47% (Compound conc. 10^-5 M, 10 µM) and 79% (Compound conc. 10^-6 M, 1 µM).

The values above are taken from patent publication EP0515684A1, “INHIBITOR OF DENATURED LDL FORMATION” (Chugai Seiyaku Kabushiki Kaisha, priority 1990, dated 1991).
